The values that follow come from ChEMBL document CHEMBL1268971, “4,5-Dihydro-1H-pyrazolo[4,3-h]quinazolines as potent and selective Polo-like kinase 1 (PLK1) inhibitors” (Bioorg Med Chem Lett, 2010).

The test system of one data set is HCT-116. Nature of the data set: Induction of cell cycle arrest in human HCT116 cells assessed as accumulation at G2/M phase at 0.005 to 0.5 uM after 24 hrs. It is filed as functional, cell-based.
The target in data set [1] is T1, Receptor-type tyrosine-protein kinase FLT3 (Homo sapiens, UniProt P36888).
T1 sequence (P36888 whole entry): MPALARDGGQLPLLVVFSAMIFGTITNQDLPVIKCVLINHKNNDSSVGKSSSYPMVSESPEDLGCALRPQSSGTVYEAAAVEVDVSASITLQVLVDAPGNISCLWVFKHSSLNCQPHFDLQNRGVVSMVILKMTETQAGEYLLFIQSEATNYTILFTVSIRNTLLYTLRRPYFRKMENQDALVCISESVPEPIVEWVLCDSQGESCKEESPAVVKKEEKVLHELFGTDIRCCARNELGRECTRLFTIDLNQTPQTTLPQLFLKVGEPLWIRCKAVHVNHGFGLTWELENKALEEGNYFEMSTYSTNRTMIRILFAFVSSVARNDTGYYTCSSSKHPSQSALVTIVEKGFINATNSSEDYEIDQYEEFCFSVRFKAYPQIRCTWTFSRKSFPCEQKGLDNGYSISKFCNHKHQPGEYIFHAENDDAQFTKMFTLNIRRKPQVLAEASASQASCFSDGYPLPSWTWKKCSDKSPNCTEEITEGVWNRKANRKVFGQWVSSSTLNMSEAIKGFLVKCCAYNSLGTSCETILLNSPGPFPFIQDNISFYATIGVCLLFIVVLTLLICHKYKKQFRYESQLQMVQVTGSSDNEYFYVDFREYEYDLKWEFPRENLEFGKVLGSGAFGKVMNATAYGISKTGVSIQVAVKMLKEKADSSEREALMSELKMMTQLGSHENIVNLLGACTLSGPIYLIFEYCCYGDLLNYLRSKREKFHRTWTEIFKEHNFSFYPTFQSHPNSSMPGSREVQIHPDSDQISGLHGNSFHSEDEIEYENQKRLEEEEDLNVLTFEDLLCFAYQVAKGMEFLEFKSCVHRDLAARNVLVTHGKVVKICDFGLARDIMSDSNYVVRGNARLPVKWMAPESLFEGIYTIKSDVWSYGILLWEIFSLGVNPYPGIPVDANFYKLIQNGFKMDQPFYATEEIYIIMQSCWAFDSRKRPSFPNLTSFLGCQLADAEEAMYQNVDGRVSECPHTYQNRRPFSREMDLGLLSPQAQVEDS
Description: Inhibition of FLT3.

Data set [2] is described as follows: Inhibition of PDGFR.
The nature of data set [3]: Volume of distribution at steady state in CD1 mouse at 10 mg/kg, iv administered as single dose by LC/MS/MS analysis. It is filed as ADME, organism-based. Also on record: dose 10 mg/kg, route intravenous. Conditions: in vivo, read-out: Vdss.
The subject of the next data set is PANC-1. Nature of the data set: Antiproliferative activity against human PANC1 cells after 72 hrs by CellTiter-Glo assay. It is filed as functional, cell-based. Conditions: PANC-1, 72 h.
A short description of data set [4]: Antiproliferative activity against human KMS11 cells after 72 hrs by CellTiter-Glo assay. It is filed as functional, cell-based. Conditions: KMS-11, 72 h.
A further data set relates to A2780. Nature of the data set: Antitumor against human A2780 cells xenografted in CD1 mouse assessed as tumor growth inhibition at 30 mg/kg, iv BID administered on day 1, 2, 3 post-implantation measured on day 12. The format is functional. The settings on record: read-out: TGI. Background: In xenograft studies the graft and the host belong to different species.
Another data set has as its system U2OS. Description: Induction of cell cycle arrest in human U2OS cells assessed as accumulation of pSer10 histone H3-positive cells at 260 nM after 24 hrs by array scan assay.

Calls of active or inactive are those of the source. No cut-off for these calls is given here. Some results are limits rather than exact numbers.

The term IC50 denotes the concentration at which inhibition is half-maximal. A higher IC50 goes with lower potency. As to `CN1CCN(c2ccc(OC(F)(F)F)c(Nc3ncc4c(n3)-c3c(c(C(N)=O)nn3C)CC4)c2)CC1`, the result with HCT-116 was Active. The 50% inhibitory concentration (IC50) in data set [1] was 1520 nM; in data set [2] it was above 10 µM; in the data set on PANC-1 it was 126 nM; in data set [4], 14 nM. Also, the Vd in data set [3] was found to be 3.39 L/kg. For the same compound, the inhibition in vivo at 30 mg/kg with A2780 stood at 74%. The Activity in the data set with U2OS is reported as 20%.
